# Entries after “also recorded” stand apart in the source; their conditions may differ.
# Legend:
# gp130-IL-6R complexes = biological target: T1, gp130-IL-6R complexes (Homo sapiens, UniProt P40189); experiment: Receptor competition, gp130-Flag pull-down, IL-6R; type: cell-based; settings: in the presence of IL-6
# T1 construct: Flag; expressed in transfected cells; host or cells: adult human articular chondrocytes
# T1 sequence (P40189 23-918): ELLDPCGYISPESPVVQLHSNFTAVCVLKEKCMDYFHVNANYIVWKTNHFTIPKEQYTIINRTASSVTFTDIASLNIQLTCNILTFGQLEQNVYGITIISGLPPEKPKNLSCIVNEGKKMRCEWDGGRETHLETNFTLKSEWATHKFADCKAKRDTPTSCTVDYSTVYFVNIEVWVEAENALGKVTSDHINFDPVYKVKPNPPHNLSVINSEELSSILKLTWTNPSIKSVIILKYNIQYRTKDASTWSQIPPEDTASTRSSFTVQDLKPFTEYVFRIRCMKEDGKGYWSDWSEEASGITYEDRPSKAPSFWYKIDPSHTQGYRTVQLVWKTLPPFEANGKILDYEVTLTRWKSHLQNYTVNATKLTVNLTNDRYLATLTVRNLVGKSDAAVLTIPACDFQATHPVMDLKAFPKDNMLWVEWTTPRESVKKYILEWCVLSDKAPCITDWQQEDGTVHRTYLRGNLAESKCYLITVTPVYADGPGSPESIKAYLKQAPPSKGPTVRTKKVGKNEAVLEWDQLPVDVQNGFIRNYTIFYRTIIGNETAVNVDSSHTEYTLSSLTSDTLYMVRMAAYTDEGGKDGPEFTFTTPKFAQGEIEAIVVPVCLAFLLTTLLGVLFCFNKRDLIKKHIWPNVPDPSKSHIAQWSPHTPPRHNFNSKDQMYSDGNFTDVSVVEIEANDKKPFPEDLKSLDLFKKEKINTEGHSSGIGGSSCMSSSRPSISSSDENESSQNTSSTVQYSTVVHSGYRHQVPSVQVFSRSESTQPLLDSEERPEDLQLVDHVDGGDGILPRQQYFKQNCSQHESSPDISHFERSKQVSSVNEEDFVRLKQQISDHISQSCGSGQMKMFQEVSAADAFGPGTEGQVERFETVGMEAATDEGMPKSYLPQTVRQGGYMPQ
# Protocol: Adult human chondrocytes transfected with gp130-Flag were incubated with various concentrations of RCGD 423 in the presence of IL-6 or OSM; levels of immoprecipitated IL-6R or OSMR were used to calculate the dissociation constant (Kd).
# This property would be of great interest due to the pro-inflammatory and pro-catabolic effects of these cytokines in the joint space. […] To assess whether RCGD 423 could directly compete for gp130 occupancy, human adult articular chondrocytes were transfected with tagged gp130 and then pulled down associated proteins±RCGD 423 and/or IL-6.
# adult human synoviocytes = experiment: ERK and NF-κB downstream of OSM and IL-6 in synoviocytes; type: cell-based
# Protocol: (§1) Accordingly, the ability of RCGD 423 to suppress signaling downstream of IL-6 and OSM in synoviocytes and peripheral blood mononuclear cells was assessed (FIG. 14).
# NF-κB protein = experiment: OSM or IL-6 induced NF-κB in human adult articular chondrocytes; type: cell-based; settings: in combination with OSM or IL-6
# adult human PBMCs = experiment: ERK and NF-κB downstream of OSM and IL-6 in PBMCs; type: cell-based
# Protocol: as §1
# [1] = Rat model of degenerative osteoarthritis (partial meniscectomy); type: in vivo
# Protocol: In this system, 50% of the meniscus is surgically removed, promoting joint instability similar to what is commonly observed in human OA and degeneration of articular cartilage in 3-6 weeks (FIGS. 12A and B). RCGD 423 loaded onto PLGA (poly(lactic-co-glycolic acid)) microspheres for slow release, or microspheres alone, were injected into the joint space at the time of surgery and 3 weeks later.
# [2] = system: human fetal articular chondrocytes; experiment: Alkaline phosphatase / hypertrophy in fetal articular chondrocytes; type: cell-based
# gp130 homodimers = biological target: T2, gp130 homodimers (Homo sapiens, UniProt P40189); experiment: Tagged gp130 homodimer detection in 293T cells; type: cell-based; settings: tagged gp130 in 293T cells
# T2 construct: Myc; expressed in transfected cells; host or cells: 293T
# T2 sequence (P40189 23-918) 1: T1 sequence (P40189 23-918)
# T2 sequence (P40189 23-918) 2: T1 sequence (P40189 23-918)
# Protocol: (§2) Based on this, it was hypothesized that RCGD 423 acts through gp130 by promoting stable homodimers in the absence of ligand. To confirm that RCGD 423 acts through gp130, the gp130 null cell line Ba/F3 cells was used. Ba/F3 cells were transfected with either full-length gp130 or a mutant gp130 lacking domain 2 (ΔD2), which contains the predicted binding site for RCGD 423 (FIG. 7). […] To verify the specificity of RCGD 423 in vivo, the compound was injected into rat knees in the presence of the small molecule gp130 inhibitor SC144 or a blocking antibody specific for domain 2 of gp130. […] The ability of RCGD 423 to act via inducing formation of gp130 homodimers was then examined by expressing tagged versions of gp130 in 293T cells. In this system, only homodimeric complexes can contain both tagged versions of gp130 (FIG. 9).
# [3] = system: adult pig articular chondrocytes; experiment: Western blot of signaling proteins (pSTAT3, MYC, MAPK, AKT, NF-κB) in pig articular chondrocytes; type: cell-based
# Protocol: (A) Class 1 molecules (marked by red arrows) activate STAT3 and MYC signaling pathways wile Class 2 molecules (blue arrows) have no stimulatory effects on STAT3 and MYC signaling in chondrocytes as determined by western blot analysis. (B) Structures of the most prominent Class 1 and Class 2 molecules. […] All drugs were tested at 10 μM and assessed using Western Blot.
# All drugs tested at 10 μM and assessed using Western Blot.
# To begin to address the mechanism of action of RCGD 423, adult pig chondrocytes were incubated with the drug, IL-6 family cytokines or the pro-catabolic cytokines TNF-α and IL-1β and measured levels of various proteins downstream of these cytokines that are known to drive catabolic responses (FIG. 3).
# Firstly, RCGD 423 was a hit from a library; this made the depth of the discovery surrounding the technology less comprehensive. Additionally, the physical properties of RCGD 423 (solubility, potency, functional groups) could be improved. Significant gains in these areas could potentially result in a first-in-class injectable for the treatment of post-traumatic OA. Moreover, the potential risks associated with promoting MYC stabilization and proliferation in gp130^+ cells as well as large increases in active STAT3 protein was of concern. […] These compounds were then screened in adult pig articular chondrocytes and cartilage explants, seeking compounds that could inhibit the catabolic effects of OSM but not drive increases in MYC and pSTAT3 protein levels. […] Together, these preliminary data identify CX-011 (B8) as a highly anti-inflammatory, anti-catabolic alternative to RCGD 423, with increased “drug-like” properties and reduced potential molecular liabilities.
# gp130 = gp130 null Ba/F3 cells transfected with full-length gp130 or ΔD2 mutant; type: cell-based; settings: WT gp130 vs ΔD2 mutant
# Protocol: as §2
smiles,measurement,setting,value
Brc1ccc(Nc2nc(-c3ccccc3)cs2)cc1 [RCGD 423],gp130-IL-6R complexes / competition with IL-6R for gp130 occupancy,gp130-IL-6R complexes,gp130-IL-6R complexes were significantly reduced; also recorded: directly competes with OSMR and IL-6R for gp130 occupancy
same,increases in ERK and NF-κB levels downstream of OSM and IL-6,adult human synoviocytes,inhibits increases in ERK and NF-κB levels
same,increases in NF-κB protein / signaling downstream of OSM and IL-6,NF-κB protein,significantly reduced increases in NF-κB protein; also recorded: reduces signaling downstream of OSM and IL-6
same,increases in ERK and NF-κB levels downstream of OSM and IL-6,adult human PBMCs,inhibits increases in ERK and NF-κB levels
same,OARSI scores,"[1]; 6 weeks, loaded onto PLGA microspheres, injected into joint space at surgery and 3 weeks later",highly significantly lower OARSI scores
same,expression of proteolytic (catabolic) enzymes after joint injury,[1]; rat OA model,decreased the expression of proteolytic enzymes; also recorded: decreased the levels of catabolic enzymes
same,"formation, size and maturity of osteophytes",[1]; rats following partial meniscectomy,inhibited both the formation and maturity of osteophytes; also recorded: reduced the size and maturity of osteophytes
same,"increases in alkaline phosphatase, a marker of hypertrophy",[2],could prevent increases in alkaline phosphatase; also recorded: ability of the compound to inhibit hypertrophy was confirmed
same,detection of gp130 homodimers (gp130-Myc),gp130 homodimers,only in the presence of RCGD 423 could gp130 homodimers be detected; also recorded: gp130-Myc was only detectable in the presence of RCGD 423
same,levels of active STAT3 (pSTAT3) and MYC proteins,"[3]; Western blot, analogs at 10 μM",increased levels of active STAT3 and MYC proteins; also recorded: shared increase in active STAT3 (pSTAT3) and MYC proteins
same,"activation of the MAPK, AKT and NF-κB pathways",[3]; adult pig articular chondrocytes,did not evidence the same result; also recorded: does not
same,gp130 signaling in gp130−/− Ba/F3 cells,gp130,full-length gp130 is required for the activity of RCGD 423; also recorded: only increase gp130 signaling in the presence of RCGD 423 and WT gp130

# Source: patent publication US12577238B2, “Compositions and methods for modulating inflammatory and degenerative disorder” (University of Southern California, priority 2018, dated 2026)
